Literature values, collected in US20150297661A1, “ANALGESIC COMPOSITIONS AND METHODS OF USE” (priority 2014, published 2015).

In the case of CCOC(=O)c1ccc(N)cc1 [Benzocaine], the duration of effect (after application to skin or mucosal surface) is given as 30 to 60 min and the “time to peak effect after application” value (in contact with skin or mucosal surface) is given as ≤ 1 min.
